pIC50: −log10 of the molar value. Entries after “also recorded” stand apart in the source; their conditions may differ. Read-outs that look alike come from different tables or passages of the source.
How the values were obtained:
SKOV-3 = assay: Proliferation assay SKOV-3; format: cell-based; settings: Homo sapiens, SK-OV-3, Ovarian, 72 hours
Procedure: (§1) Various cancer cell lines (listed in table 1) were plated at a density of 1000-5000 cells/well in 96-well plates in 90111 growth medium containing 10% FCS, 100 units/ml penicillin and 100 μg/ml streptomycin. Inhibitors were added a day later in 10 μl of 1% DMSO in DDW to obtain final concentrations of 0, 0.1, 0.3, 1, 3, and 10 μM. The final concentration of DMSO (0.1% DMSO) was kept constant in all samples. Medium with inhibitors was refreshed a day and two days later. Following exposure of the cells to the inhibitors for 72 hours at 37° C., the cells were fixed in 0.5% gluteraldehyde in medium for 10 min, washed three times with DDW, once with 0.1M sodium borate buffer pH 8.5 and stained with 1% methylene blue dissolved in 0.1M borate buffer solution for 60 min. Excess dye was washed out and cell-bound dye was eluted with 200 μl/well of 0.1 M HCl. The optical density value was read at 620 nm in ELISA plate reader. The data was analyzed in Microsoft Excel, using the vehicle control as 100% proliferation. The assays were performed in triplicates. The values in table 1 represent IC50 values derived from the dose-dependent growth curves obtained.
(§2) Compounds 6, 7, 8, and 9 were tested for their inhibitory potential in cell proliferation assay. In this assay cells were exposed to increasing concentrations of the molecules (at 0.1% DMSO in all wells) a day after seeding. Medium and inhibitors were refreshed every day, and following three days of treatment, cells were fixed and stained with methylene-Blue. IC50 values were determined from the curves of the optical density against compound concentration. The assay was performed in triplicates.

IRS1 [1] = assay: IRS1 Ser-phosphorylation and IRS1 levels in MCF7 cells; format: cell-based; settings: breast cancer MCF7 cells
Procedure: Tyrosine autophosphorylation of the β-subunit of IGF1R as well as downstream signaling induced by IGF1R were assayed in breast cancer MCF7 cells. Tyrosine autophosphorylation of the EGFR and the EGFR signaling was assayed in prostate cancer PC3 cells. Tyrosine autophosphorylation of the PDGFR and its signaling was assayed in fibroblasts overexpres sing PDGFR. Tyro sine autophosphorylation of the IR and its signaling was assayed in fibroblasts overexpressing IR. Cells were seeded in 6-well plates (MCF7-250,000 cells/well, PC3-150,000 cells/well, fibroblasts-140,000 cells/well) and 24 hours later medium was replaced by serum-free medium (DMEM supplemented with 100 units/ml penicillin and 100 μg/ml streptomycin). Following 20 hours of serum-starvation medium was replaced with medium containing various concentrations of the inhibitors in 0.1% DMSO for additional 4 hours. Cells were then stimulated for 5 min with 50 ng/ml IGF-1 (MCF7 cells), 20 ng/ml EGF (PC3 cells), 50 ng/ml PDGF (fibroblasts overexpressing PDGFR) or 100 nM insulin (fibroblasts overexpressing IR), washed twice with PBS and lysed by boiling sample buffer (10% glycerol, 50 mM Tris-HCl, pH 6.8, 3% SDS, and 5%, β-mercaptoethanol). Equal amounts of protein per lane were separated by 8% SDS-PAGE and transferred to a nitrocellulose membrane (Sartorius AG). Phosphorylated proteins were immunoblotted with anti-phospho-IGF1R (phosphor-IGF1R), anti-phosphotyrosine-IRS1 (phospho-IRS1), anti-phospho(T308)Akt (phospho-PKB), anti-phospho-Erk (phospho-ERK), anti-phosphotyrosine 4G10&PY20 (pY-EGFR or pY-PDGFR), anti-phospho-Ser^636/639-IRS1 (pS^636/639-IRS1) and anti-phospho-STAT3 (phospho-STAT3) antibodies. Detection was performed with horseradish peroxidase-conjugated secondary antibody using the ECL system. Blots were then stripped of antibodies, blocked with TBST with 5% low fat milk and re-probed with antibodies detecting both the phosphorylated and the non-phosphorylated corresponding proteins e.g. IGF1Rβ, IRS1, PKB, ERK, IRβ, PDGFR and Stat3.
(§3) In addition, lysates were prepared from cells exposed to inhibitors at various concentrations for 24 hours in the presence or the absence of FCS without stimulation. Lysate preparation and western blot were the same as described above. Apoptosis was detected by immunoblotting with rabbit anti-PARP antibodies.

OVCAR3 = assay: Proliferation assay OVCAR3; format: cell-based; settings: Homo sapiens, OVCAR-3, Ovarian, 72 hours
Procedure: as §1, §2

U138MG = assay: Clonogenic assay U138MG; format: cell-based; settings: Homo sapiens, U138-MG, Glioma
Procedure: Various cancer cells (listed in table 1) were seeded at a very low concentration (19 cells/well in 96-well plates or 63 cells/well in 24-well plates) in growth medium. A day later medium was replaced with growth medium containing various concentrations of inhibitors in a final concentration of 0.1% DMSO. The inhibitor-containing medium was refreshed three times a week. Following approximately two weeks cells were fixed by adding Gluteraldehide (0.5% final concentration) for 10 min, washed three time with DDW, once with borate buffer 0.1M and stained for 1 hour with 1% Methylene Blue in borate buffer 0.1M. Access stain was washed with water, and following drying colonies were counted. Alternatively, stain was extracted by 0.1N HCl for 1 hour and absorbance at 620 nm was measured by ELISA Reader. The assays were performed in triplicates. The values in table 1 represent IC50 values derived from the dose-dependent growth curves obtained.

U87MG = assay: Proliferation assay U87MG; format: cell-based; settings: Homo sapiens, U-87 MG, Glioma, 72 hours
Procedure: as §1, §2

SKBR-3 = assay: Proliferation assay SKBR-3; format: cell-based; settings: Homo sapiens, SK-BR-3, Breast, 72 hours
Procedure: as §1, §2

YURIF = assay: Proliferation assay YURIF; format: cell-based; settings: Homo sapiens
Procedure: as §1, §2

T47D = assay: Proliferation assay T47D; format: cell-based; settings: Homo sapiens, Breast, 72 hours
Procedure: as §1, §2

MDA MB 435 = assay: Proliferation assay MDA MB 435; format: cell-based; settings: Homo sapiens, Breast, 72 hours
Procedure: as §1, §2

K562 = assay: Proliferation assay K562; format: cell-based; settings: Homo sapiens, Leukemia, 72 hours
Procedure: as §1, §2

LNCaP = assay: Proliferation assay LNCaP; format: cell-based; settings: Homo sapiens, Prostate, 72 hours
Procedure: as §1, §2

U266 = assay: Proliferation assay U266; format: cell-based; settings: Homo sapiens, U-266, Myeloma, 72 hours
Procedure: as §1, §2

MDA MB 468 = assay: Proliferation assay MDA MB 468; format: cell-based; settings: Homo sapiens, Breast, 72 hours
Procedure: as §1, §2

PC3 = assay: Proliferation assay PC3; format: cell-based, human; settings: Prostate
Procedure: as §1, §2

IRS1 [2] = assay: IRS1 Ser-phosphorylation in YUMAC cells; format: cell-based, human; settings: metastatic melanoma YUMAC cells
Procedure: as §3

IRS1 [3] = assay: IRS1 Ser-phosphorylation and IRS1 levels in A2780 cells; format: cell-based, human; settings: ovarian cancer A2780 cells
Procedure: as §3

[4] = Melanoma, YURIF, 72 hours, read-out: Proliferation assay IC50
[5] = Table 4, 72 hours incubation, read-out: Inhibition of human metastatic melanoma cells, YURIF IC50

| pIC50 (SKOV-3) | pIC50 (OVCAR3) | pIC50 (U138MG) | pIC50 (U87MG) | pIC50 (SKBR-3) | pIC50 (T47D) | pIC50 (K562) | pIC50 (LNCaP) | pIC50 (U266) | pIC50 (PC3; Homo sapiens, PC-3, 72 h) | pIC50 (PC3; 72 hours) | Compound | Cellular levels of IRS1 (IRS1 [1]) | pIC50 (YURIF; [4]) | pIC50 (YURIF; [5]) | pIC50 (MDA MB 435) | pIC50 (MDA MB 468) | IRS1 Ser-phosphorylation (IRS1 [1]) | IRS1 Ser-phosphorylation (IRS1 [2]) | Cellular IRS1 levels (IRS1 [3]) | IRS1 Ser-phosphorylation (shift up of IRS1 band) (IRS1 [3]) |
| --- | --- | --- | --- | --- | --- | --- | --- | --- | --- | --- | --- | --- | --- | --- | --- | --- | --- | --- | --- | --- |
| < 5.00 | < 5.00 | 5.66 | < 5.00 | < 5.00 | < 5.00 | < 5.00 | < 5.00 | 5.01 | < 5.00 | – | N#C/C(=C\c1cc(O)c(O)c(Br)c1)C(=S)NCc1cc(O)c(O)c(Br)c1 [Compound 6] | has no effect | < 5.00 | < 5.00 | < 5.00 | < 5.00 | – | – | – | – |
| 5.28 | 5.70 | 5.74 | 5.16 | 5.00 | 5.68 | ~5.00 | < 5.00 | 6.10 | 5.55 | 5.41 | N#C/C(=C\c1cc(O)c(O)c(Br)c1)C(=S)NCc1cc(O)c(O)c(O)c1 [Compound 7] | induce a decrease in the cellular levels | 5.85 | 5.85 | 5.57 | < 5.00 | increase in IRS1 Ser-phosphorylation | detected | a decrease in cellular IRS1 levels | induced Ser-phosphorylation |
| 5.46 | 5.72 | 5.80 | 5.62 | 5.05 | 5.60 | ~5.00 | 5.11 | 6.10 | 5.34 | 5.44 | N#C/C(=C\c1cc(O)c(O)c(I)c1)C(=S)NCc1cc(O)c(O)c(O)c1 [Compound 8] | – | 5.80 | 5.80 | 5.68 | 5.24 | trigger IRS1-ser phosphorylation | trigger IRS1-ser phosphorylation; also recorded: detected | a decrease in cellular IRS1 levels | induced Ser-phosphorylation |
| 5.37 | 6.05 | 6.30 | 5.18 | 5.22 | 5.80 | < 5.00 | 5.33 | 6.05 | 5.57 | 5.70 | Oc1cc(CNC(=S)/C=C/c2cc(O)c(O)c(Br)c2)cc(O)c1O [Compound 9] | – | 6.15 | 6.19 | 5.82 | 5.14 | trigger IRS1-ser phosphorylation | trigger IRS1-ser phosphorylation; also recorded: detected | a decrease in cellular IRS1 levels | induced Ser-phosphorylation |

Reference: patent publication US8058309B2, “Protein kinase modulators and therapeutic uses thereof” (Novotyr Therapeutics Ltd., priority 2006, dated 2011)
